{"source": "patent US5395947A", "about": "“Platinum(II) complex and processes for preparing the same” (Sunkyong Industries, Ltd., priority 1991, dated 1995)", "key": {"[1]": {"tested_on": "murine leukemia L1210 cells", "assay": "Growth inhibition test on cultured murine leukemia L1210 cells", "assay_type": "cell-based", "settings": "48 hours, 37° C., Trypan blue viability", "how_it_was_run": "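L1210 cells (1×10^5) exposed to graded compound concentrations in RPMI 1640 with 10% fetal calf serum, 37° C, 5% CO2, 48 h. Viability by 0.17% Trypan blue staining, relative to untreated control cells.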"}, "murine leukemia L1210": {"tested_on": "murine leukemia L1210", "assay": "Antitumor activity test on murine leukemia L1210 in vivo", "design": "species or system male BDF1 mice", "settings": "days 1, 5, 9", "how_it_was_run": "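Intraperitoneal L1210 model: 1×10^6 cells inoculated i.p. into 6-week-old male BDF1 mice (21±3 g) on day 0, seven per group. Compounds in 0.5% CMC given i.p. on days 1, 5 and 9; vehicle-only controls. T/C % from mean survival time of treated over control.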"}, "[2]": {"assay": "Test for water solubility", "assay_type": "physicochemical", "settings": "20° C.", "from_the_text": "3. Test for water solubility\nA standard plot of UV absorbance(220 nm) vs. concentration was made; and employed to determine water-solubility.\nThe mixture was then passed through a 0.45 micron disposable membrane filter before dilution and UV measurement."}, "Test for nephrotoxicity": {"assay": "Test for nephrotoxicity", "assay_type": "in vivo, male ICR mice", "settings": "18.8 mg/kg i.p. once", "method": "4. Test for nephrotoxicity\nThe compounds of the present invention were dissolved or suspended in 0.5% CMC solution(in water) and were administered intraperitoneally one time to 8-week-old male ICR mice weighing 30±3 g. Each treatment and control groups consisted of six mice.\nThe administration amount of the test compound was 1.5 times the optimum dose obtained in Table 2, or more. On days 1, 4 and 8 after administration, their blood was collected under ether anesthesia for measurement of blood urea nitrogen concentration (BUN value) and creatinine concentration.\nA pair of kidneys were taken and, after immediate weighing, were stored in a 10% neutral buffered formalin solution. The body weight ratio shown in Table 5 is a ratio of the body weight measured on days 1, 4 and 8 from the administration of the compound to the body weight measured on the administration day."}, "ICR mice": {"tested_on": "ICR mice", "assay": "Acute toxicity test", "assay_type": "in vivo", "design": "Lethality: unit not given here", "settings": "for Lethality: 10080 min", "how_it_was_run": "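Male and female 7-week-old ICR mice, 6 per group, dosed intraperitoneally. Signs and survival followed for 7 days, with autopsy of animals that died.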"}, "human cancers": {"tested_on": "human cancers", "settings": "testicular, ovarian, bladder, head and neck cancer; cited from earlier work"}}}
{"smiles": "CCC1O[C@H](CN)[C@@H](CN)O1.O=C1C[O][Pt][O]1", "note": "[Example 6, (glycolato-O,O')[(4R,5R)-4,5-bis(aminomethyl)-2-ethyl-1,3-dioxolane]platinum(II)]", "values": [{"measurement": "IC50 (concentration required for 50% inhibition of growth)", "setting": "[1]", "value": 0.22, "unit": "µg/mL"}, {"measurement": "T/C (%)", "setting": "murine leukemia L1210; 3.1 mg/kg i.p.", "value": 113, "unit": "%"}, {"measurement": "T/C (%)", "setting": "murine leukemia L1210; 6.2 mg/kg i.p.", "value": 162, "unit": "%"}, {"measurement": "T/C (%)", "setting": "murine leukemia L1210; 12.5 mg/kg i.p.", "value": 205, "unit": "%"}, {"measurement": "T/C (%)", "setting": "murine leukemia L1210; 25 mg/kg i.p.", "value": "toxic"}, {"measurement": "T/C (%)", "setting": "murine leukemia L1210; 50 mg/kg i.p.", "value": "toxic"}, {"measurement": "Solubility in water", "setting": "[2]", "value": "> 50", "unit": "mg/mL"}, {"measurement": "BUN, 1st day", "setting": "Test for nephrotoxicity", "value": 22.41, "unit": "mg/100 ml"}, {"measurement": "BUN, 4th day", "setting": "Test for nephrotoxicity", "value": 22.67, "unit": "mg/100 ml"}, {"measurement": "BUN, 8th day", "setting": "Test for nephrotoxicity", "value": 30.41, "unit": "mg/100 ml"}, {"measurement": "Number of dead mice for 7 days", "setting": "ICR mice; female, 25.0 mg/kg i.p.", "value": "0/6"}, {"measurement": "Number of dead mice, 1st day", "setting": "ICR mice; female, 25.0 mg/kg i.p.", "value": "0/6"}, {"measurement": "Number of dead mice for 7 days", "setting": "ICR mice; female, 32.5 mg/kg i.p.", "value": "1/6"}, {"measurement": "Number of dead mice, 1st day", "setting": "ICR mice; female, 32.5 mg/kg i.p.", "value": "0/6"}, {"measurement": "Number of dead mice, 3rd day", "setting": "ICR mice; female, 32.5 mg/kg i.p.", "value": "1/6"}, {"measurement": "Lethality", "setting": "ICR mice; female, 32.5 mg/kg i.p.", "value": 16.7}, {"measurement": "Number of dead mice for 7 days", "setting": "ICR mice; female, 42.3 mg/kg i.p.", "value": "3/6"}, {"measurement": "Number of dead mice, 1st day", "setting": "ICR mice; female, 42.3 mg/kg i.p.", "value": "0/6"}, {"measurement": "Number of dead mice, 3rd day", "setting": "ICR mice; female, 42.3 mg/kg i.p.", "value": "1/6"}, {"measurement": "Number of dead mice, 4th day", "setting": "ICR mice; female, 42.3 mg/kg i.p.", "value": "1/5"}, {"measurement": "Number of dead mice, 5th day", "setting": "ICR mice; female, 42.3 mg/kg i.p.", "value": "1/4"}, {"measurement": "Lethality", "setting": "ICR mice; female, 42.3 mg/kg i.p.", "value": 50.0}, {"measurement": "Number of dead mice for 7 days", "setting": "ICR mice; female, 55.0 mg/kg i.p.", "value": "5/6"}, {"measurement": "Number of dead mice, 1st day", "setting": "ICR mice; female, 55.0 mg/kg i.p.", "value": "0/6"}, {"measurement": "Number of dead mice, 3rd day", "setting": "ICR mice; female, 55.0 mg/kg i.p.", "value": "4/6"}, {"measurement": "Number of dead mice, 4th day", "setting": "ICR mice; female, 55.0 mg/kg i.p.", "value": "1/2"}, {"measurement": "Lethality", "setting": "ICR mice; female, 55.0 mg/kg i.p.", "value": 83.3}, {"measurement": "Number of dead mice for 7 days", "setting": "ICR mice; female, 71.4 mg/kg i.p.", "value": "6/6"}, {"measurement": "Number of dead mice, 1st day", "setting": "ICR mice; female, 71.4 mg/kg i.p.", "value": "0/6"}, {"measurement": "Number of dead mice, 3rd day", "setting": "ICR mice; female, 71.4 mg/kg i.p.", "value": "4/6"}, {"measurement": "Number of dead mice, 4th day", "setting": "ICR mice; female, 71.4 mg/kg i.p.", "value": "2/2"}, {"measurement": "Lethality", "setting": "ICR mice; female, 71.4 mg/kg i.p.", "value": 100.0}, {"measurement": "Number of dead mice for 7 days", "setting": "ICR mice; male, 25.0 mg/kg i.p.", "value": "0/6"}, {"measurement": "Number of dead mice, 1st day", "setting": "ICR mice; male, 25.0 mg/kg i.p.", "value": "0/6"}, {"measurement": "Number of dead mice for 7 days", "setting": "ICR mice; male, 32.5 mg/kg i.p.", "value": "0/6"}, {"measurement": "Number of dead mice, 1st day", "setting": "ICR mice; male, 32.5 mg/kg i.p.", "value": "0/6"}, {"measurement": "Number of dead mice, 3rd day", "setting": "ICR mice; male, 32.5 mg/kg i.p.", "value": "1/6"}, {"measurement": "Lethality", "setting": "ICR mice; male, 32.5 mg/kg i.p.", "value": 16.7}, {"measurement": "Number of dead mice for 7 days", "setting": "ICR mice; male, 42.3 mg/kg i.p.", "value": "4/6"}, {"measurement": "Number of dead mice, 1st day", "setting": "ICR mice; male, 42.3 mg/kg i.p.", "value": "0/6"}, {"measurement": "Number of dead mice, 3rd day", "setting": "ICR mice; male, 42.3 mg/kg i.p.", "value": "1/6"}, {"measurement": "Number of dead mice, 4th day", "setting": "ICR mice; male, 42.3 mg/kg i.p.", "value": "2/5"}, {"measurement": "Number of dead mice, 5th day", "setting": "ICR mice; male, 42.3 mg/kg i.p.", "value": "1/3"}, {"measurement": "Lethality", "setting": "ICR mice; male, 42.3 mg/kg i.p.", "value": 66.7}, {"measurement": "Number of dead mice for 7 days", "setting": "ICR mice; male, 55.0 mg/kg i.p.", "value": "6/6"}, {"measurement": "Number of dead mice, 1st day", "setting": "ICR mice; male, 55.0 mg/kg i.p.", "value": "0/6"}, {"measurement": "Number of dead mice, 3rd day", "setting": "ICR mice; male, 55.0 mg/kg i.p.", "value": "4/6"}, {"measurement": "Number of dead mice, 4th day", "setting": "ICR mice; male, 55.0 mg/kg i.p.", "value": "1/2"}, {"measurement": "Number of dead mice, 5th day", "setting": "ICR mice; male, 55.0 mg/kg i.p.", "value": "1/1"}, {"measurement": "Lethality", "setting": "ICR mice; male, 55.0 mg/kg i.p.", "value": 100.0}, {"measurement": "Number of dead mice for 7 days", "setting": "ICR mice; male, 71.4 mg/kg i.p.", "value": "6/6"}, {"measurement": "Number of dead mice, 1st day", "setting": "ICR mice; male, 71.4 mg/kg i.p.", "value": "0/6"}, {"measurement": "Number of dead mice, 3rd day", "setting": "ICR mice; male, 71.4 mg/kg i.p.", "value": "4/6"}, {"measurement": "Number of dead mice, 4th day", "setting": "ICR mice; male, 71.4 mg/kg i.p.", "value": "2/2"}, {"measurement": "Lethality", "setting": "ICR mice; male, 71.4 mg/kg i.p.", "value": 100.0}]}
{"smiles": "N.N.[Cl][Pt][Cl]", "note": "[cisplatin, cis-dichlorodiammineplatinum(II), reference compound]", "values": [{"measurement": "IC50 (concentration required for 50% inhibition of growth)", "setting": "[1]", "value": 0.06, "unit": "µg/mL"}, {"measurement": "T/C (%)", "setting": "murine leukemia L1210; 1.5 mg/kg i.p.", "value": 142, "unit": "%"}, {"measurement": "T/C (%)", "setting": "murine leukemia L1210; 3.1 mg/kg i.p.", "value": 167, "unit": "%"}, {"measurement": "T/C (%)", "setting": "murine leukemia L1210; 6.2 mg/kg i.p.", "value": 82, "unit": "%"}, {"measurement": "T/C (%)", "setting": "murine leukemia L1210; 12.5 mg/kg i.p.", "value": "toxic"}, {"measurement": "T/C (%)", "setting": "murine leukemia L1210; 25 mg/kg i.p.", "value": "toxic"}, {"measurement": "effectiveness on human cancers", "setting": "human cancers", "value": "effective on a variety of human cancers"}]}
